{"source": "patent US7811352B2", "about": "“Fertilizer compositions and methods of using” (priority 2005, dated 2010)", "system": "creeping bentgrass for greens", "test": "Phytotoxicity (% burn), creeping bentgrass for greens (Example 12)", "type": "in vivo", "from_the_text": "In this Example, the effect of a fertilizer comprising lysine on turfgrass growth was examined. The effects of lysine (HCl) and LIQUID LYSINE on a common type of golf course greens quality turfgrass (creeping bentgrass for greens) were compared with those of CoRoN® brand fertilizer (commercially available from Helena Chemical Co., Collierville, Tenn.).\nNine fertilizer treatments comprising three concentrations of each fertilizer composition (Corono® (N—P—K, 14-2-14), LIQUID LYSINE (N—P—K, 10-2-1), and lysine (HCl) (N—P—K, 15-2-1)) were prepared and applied to 3 replications of creeping bentgrass for use on golf course greens. The lysine (HCl) (250 g) was dissolved in water (500 mL) prior to application. Each fertilizer treatment was applied in concentrations of 0.7 g N/m^2, 1.4 g N/m^2, and 2.8 g N/m^2. All applications were made using an Ortho Heavy Duty hand pump sprayer with all products being mixed with 126 mL of water for application. Plot size was 2 ft×6 ft set up as a randomized complete block. Irrigation was applied following application. Plots were rated for turfgrass quality and color (scale of 1-10 where 10=dark green turf, 1=dead/brown turf, and 6minimally acceptable turf) and phytotoxicity (% bum) throughout the study period. Quality, color, and phytotoxicity were measured on day 7, day 14, day 2I1, day 28, day 35, and day 42 after application. All data was subject to statistical analysis and significant means were determined."}
{"smiles": "Cl.NCCCC[C@H](N)C(=O)O", "note": "[Lys (HCl) 15% N, L-lysine monohydrochloride]", "values": [{"measurement": "Phytotoxicity (% Burn) - Creeping Bentgrass", "setting": "Rate 0.7 gN/m^2, Day 7", "value": 2.3, "unit": "b %"}, {"measurement": "Phytotoxicity (% Burn) - Creeping Bentgrass", "setting": "Rate 0.7 gN/m^2, Day 14", "value": 15.0, "unit": "c %"}, {"measurement": "Phytotoxicity (% Burn) - Creeping Bentgrass", "setting": "Rate 0.7 gN/m^2, Day 21", "value": 10.0, "unit": "d %"}, {"measurement": "Phytotoxicity (% Burn) - Creeping Bentgrass", "setting": "Rate 0.7 gN/m^2, Day 28", "value": 6.7, "unit": "b %"}, {"measurement": "Phytotoxicity (% Burn) - Creeping Bentgrass", "setting": "Rate 0.7 gN/m^2, Day 35", "value": 3.3, "unit": "d %"}, {"measurement": "Phytotoxicity (% Burn) - Creeping Bentgrass", "setting": "Rate 0.7 gN/m^2, Day 42", "value": 1.7, "unit": "c %"}, {"measurement": "Phytotoxicity (% Burn) - Creeping Bentgrass", "setting": "Rate 1.4 gN/m^2, Day 7", "value": 15.0, "unit": "c %"}, {"measurement": "Phytotoxicity (% Burn) - Creeping Bentgrass", "setting": "Rate 1.4 gN/m^2, Day 14", "value": 58.3, "unit": "b %"}, {"measurement": "Phytotoxicity (% Burn) - Creeping Bentgrass", "setting": "Rate 1.4 gN/m^2, Day 21", "value": 51.7, "unit": "b %"}, {"measurement": "Phytotoxicity (% Burn) - Creeping Bentgrass", "setting": "Rate 1.4 gN/m^2, Day 28", "value": 18.3, "unit": "ab %"}, {"measurement": "Phytotoxicity (% Burn) - Creeping Bentgrass", "setting": "Rate 1.4 gN/m^2, Day 35", "value": 56.7, "unit": "b %"}, {"measurement": "Phytotoxicity (% Burn) - Creeping Bentgrass", "setting": "Rate 1.4 gN/m^2, Day 42", "value": 31.7, "unit": "b %"}, {"measurement": "Phytotoxicity (% Burn) - Creeping Bentgrass", "setting": "Rate 2.8 gN/m^2, Day 7", "value": 36.7, "unit": "a %"}, {"measurement": "Phytotoxicity (% Burn) - Creeping Bentgrass", "setting": "Rate 2.8 gN/m^2, Day 14", "value": 78.3, "unit": "a %"}, {"measurement": "Phytotoxicity (% Burn) - Creeping Bentgrass", "setting": "Rate 2.8 gN/m^2, Day 21", "value": 73.3, "unit": "a %"}, {"measurement": "Phytotoxicity (% Burn) - Creeping Bentgrass", "setting": "Rate 2.8 gN/m^2, Day 28", "value": 35.0, "unit": "a %"}, {"measurement": "Phytotoxicity (% Burn) - Creeping Bentgrass", "setting": "Rate 2.8 gN/m^2, Day 35", "value": 83.3, "unit": "a %"}, {"measurement": "Phytotoxicity (% Burn) - Creeping Bentgrass", "setting": "Rate 2.8 gN/m^2, Day 42", "value": 78.3, "unit": "a %"}]}
